Test results reported in US11827917B1, “Methods for the conversion of fermentable sugars to ethanol” (Colorado State University Research Foundation, priority 2020, dated 2023).
Marks after values point to notes of the source that are not given here.

Legend:
Test in all cases: Serum-bottle cultivation in YPD, different yeast strains
Conditions in all cases: 0.2%
S. cerevisiae JAY 241 = format: cell-based, Saccharomyces cerevisiae
Method: (§1) Analytical methods: Cell growth was evaluated by monitoring OD600 and cell dry mass concentration. For dry mass measurements, 1.0 mL of culture was transferred to a pre-dried and pre-weighed 2-mL centrifuge tube. The tubes were centrifuged for 10 min at 14000 rpm using a microcentrifuge, and then the cell pellets were dried in an oven for 3 days at 65° C. The cell dry mass was determined by subtracting the initial tube mass from the dried mass of tube with cells. The concentrations of glucose, ethanol, and glycerol were measured via HPLC (Shimadzu LC20A series) outfitted with a refractive index detector and using an Aminex HPX-87H (300×7.8 mm) organic acid column and Cation H+ guard cartridge (Bio Rad Laboratories, Hercules, CA). The column was maintained at 65° C. and the mobile phase was 5 mM sulfuric acid with a flow rate of 0.6 mL/min. Standard compound solutions were used to calibrate the HPLC. Each sample was analyzed three times by HPLC.
(§2) Procedure: Seven yeast strains (S. cerevisiae ATCC 26603, S. cerevisiae JAY 238, S. cerevisiae JAY 240, S. cerevisiae JAY 241, S. paradoxus JAY 1502, S. kudriavzezii JAY 1503, and S. mikatae JAY 1504) were pre-cultured in 30 mL of YPD medium in 100 mL serum bottle overnight in a shaker at 30° C. and 200 rpm. The precultured yeast cells of each strains were collected and washed twice. Finally, the cell pellet was resuspended in about 10 mL 0.8% (w/v) NaCl and the OD600 measured. TyrOH, PheOH, and TrpOH were added to 30 mL of YPD medium in 100-mL serum bottles at 0.2% (w/v) respectively. The same amount of DMSO was added in YPD medium and served as control to the TrpOH and TyrOH treatments. The prepared yeast cells were added to obtain the initial cell concentration at OD600=0.2. The serum bottles were sealed and cultured in a shaker at 30° C. and 200 rpm for 24 h. There were three biological replicates for each treatment.

S. cerevisiae JAY 240 = format: cell-based, Saccharomyces cerevisiae
Method: as §1, §2

S. cerevisiae ATCC 26603 = format: cell-based, Saccharomyces cerevisiae
Method: as §1, §2

S. paradoxus JAY 1502 = format: cell-based
Method: as §1, §2

S. kudriavzezii JAY 1503 = format: cell-based
Method: as §1, §2

S. mikatae JAY 1504 = format: cell-based
Method: as §1, §2

[1] = S. cerevisiae JAY 241, YPD (Table 9B)
[2] = S. cerevisiae JAY 240, YPD (Table 9B)
[3] = S. cerevisiae ATCC 26603, YPD (Table 9B)
[4] = S. paradoxus JAY 1502, YPD (Table 9B)
[5] = S. kudriavzezii JAY 1503, YPD (Table 9B)
[6] = S. mikatae JAY 1504, YPD (Table 9B)

## OCCc1ccc(O)cc1 [TyrOH, Tyrosol]
S. cerevisiae JAY 241; S. cerevisiae JAY 241
  Biomass Yield: 0.049 ± 0.000 g/g
  Biomass yield % change vs. control: −16* %
  EtOH yield: 0.422 ± 0.013 g/g
  Glycerol yield: 0.043 ± 0.000 g/g
  Glycerol yield % change vs. control: −23* %
S. cerevisiae JAY 241; S. cerevisiae JAY 241, YPD
  DCW Δ vs. ref: 88.7%
  OD600: 1.68
  OD600 Δ vs. ref: 84.0%
S. cerevisiae JAY 241; [1]
  Biomass Yield: 0.049 + 0.000 g/g
  Biomass yield Δ vs. ref: −15.7%
  Ethanol yield: 0.422 ± 0.013 g/g
  Ethanol yield Δ vs. ref: 10.4%
  Glycerol yield: 0.043 ± 0.000 g/g
  Glycerol yield Δ vs. ref: −23.39%
S. cerevisiae JAY 240; S. cerevisiae JAY 240
  Biomass Yield: 0.061 ± 0.002 g/g
  Biomass yield % change vs. control: −16* %
  EtOH yield: 0.446 ± 0.022 g/g
  Glycerol yield: 0.034 ± 0.001 g/g
  Glycerol yield % change vs. control: −15* %
S. cerevisiae JAY 240; S. cerevisiae JAY 240, YPD
  DCW: 2.65 mg
  DCW Δ vs. ref: 86.9%
  OD600: 2.09
  OD600 Δ vs. ref: 83.9%
S. cerevisiae JAY 240; [2]
  Biomass Yield: 0.061 + 0.002 g/g
  Biomass yield Δ vs. ref: −15.7%
  Ethanol yield: 0.446 ± 0.022 g/g
  Ethanol yield Δ vs. ref: 10.1%
  Glycerol yield: 0.034 ± 0.001 g/g
  Glycerol yield Δ vs. ref: −14.77%
S. cerevisiae ATCC 26603; S. cerevisiae ATCC 26603
  Biomass Yield: 0.056 ± 0.003 g/g
  Biomass yield % change vs. control: −21* %
  EtOH yield: 0.467 ± 0.015 g/g
  EtOH yield % change vs. control: +7.7* %
  Glycerol yield: 0.064 ± 0.006 g/g
  Glycerol yield % change vs. control: −12* %
S. cerevisiae ATCC 26603; S. cerevisiae ATCC 26603, YPD
  DCW: 1.53 mg
  DCW Δ vs. ref: 86.8%
  OD600: 1.34
  OD600 Δ vs. ref: 95.5%
S. cerevisiae ATCC 26603; [3]
  Biomass Yield: 0.056 + 0.003 g/g
  Biomass yield Δ vs. ref: −20.6%
  Ethanol yield: 0.467 ± 0.015 g/g
  Ethanol yield Δ vs. ref: 7.7%
  Glycerol yield: 0.064 ± 0.006 g/g
  Glycerol yield Δ vs. ref: −11.82%
S. paradoxus JAY 1502; S. paradoxus JAY 1502
  Biomass Yield: 0.055 ± 0.000 g/g
  Biomass yield % change vs. control: −15* %
  EtOH yield: 0.410 ± 0.014 g/g
  Glycerol yield: 0.041 ± 0.001 g/g
  Glycerol yield % change vs. control: −9.9%
S. paradoxus JAY 1502; S. paradoxus JAY 1502, YPD
  DCW: 2.15 mg
  DCW Δ vs. ref: 81.1%
  OD600: 1.90
  OD600 Δ vs. ref: 85.5%
S. paradoxus JAY 1502; [4]
  Biomass Yield: 0.055 + 0.000 g/g
  Biomass yield Δ vs. ref: −15.4%
  Ethanol yield: 0.410 ± 0.014 g/g
  Ethanol yield Δ vs. ref: 5.4%
  Glycerol yield: 0.041 ± 0.001 g/g
  Glycerol yield Δ vs. ref: −9.89%
S. kudriavzezii JAY 1503; S. kudriavzezii JAY 1503
  Biomass Yield: 0.029 ± 0.000 g/g
  Biomass yield % change vs. control: −35* %
  EtOH yield: 0.388 ± 0.000 g/g
  EtOH yield % change vs. control: +7.8* %
  Glycerol yield: 0.056 ± 0.001 g/g
  Glycerol yield % change vs. control: +8.1%
S. kudriavzezii JAY 1503; S. kudriavzezii JAY 1503, YPD
  DCW: 2.10 mg
  DCW Δ vs. ref: 82.4%
  OD600: 0.82
  OD600 Δ vs. ref: 52.4%
S. kudriavzezii JAY 1503; [5]
  Biomass Yield: 0.029 + 0.000 g/g
  Biomass yield Δ vs. ref: −35.1%
  Ethanol yield: 0.388 ± 0.000 g/g
  Ethanol yield Δ vs. ref: 7.8%
  Glycerol yield: 0.056 ± 0.001 g/g
  Glycerol yield Δ vs. ref: 8.07%
S. mikatae JAY 1504; S. mikatae JAY 1504
  Biomass Yield: 0.052 ± 0.000 g/g
  Biomass yield % change vs. control: −20* %
  EtOH yield: 0.359 ± 0.042 g/g
  EtOH yield % change vs. control: +6.7* %
  Glycerol yield: 0.036 ± 0.001 g/g
  Glycerol yield % change vs. control: −24* %
S. mikatae JAY 1504; S. mikatae JAY 1504, YPD
  DCW: 2.65 mg
  DCW Δ vs. ref: 79.1%
  OD600: 1.75
  OD600 Δ vs. ref: 77.3%
S. mikatae JAY 1504; [6]
  Biomass Yield: 0.052 + 0.000 g/g
  Biomass yield Δ vs. ref: −20.1%
  Ethanol yield: 0.359 ± 0.042 g/g
  Ethanol yield Δ vs. ref: 6.7%
  Glycerol yield: 0.036 ± 0.001 g/g
  Glycerol yield Δ vs. ref: −23.65%
